Source: ChEMBL document CHEMBL1131220, “Isosteric analogues of nicotinamide adenine dinucleotide derived from furanfurin, thiophenfurin, and selenophenfurin as mammalian inosine monophosphate dehydrogenase (type I and II) inhibitors” (J Med Chem, 1998)

Assays:
[1] = target: T1, Inosine-5'-monophosphate dehydrogenase 1 (Homo sapiens, UniProt P20839); experiment: The compound was tested for the inhibition towards IMP(Inosine 5'-monophosphate) substrate of Inosine-5'-monophosphate dehydrogenase 1
[2] = target: T2, Inosine-5'-monophosphate dehydrogenase 2 (Homo sapiens, UniProt P12268); experiment: The compound was tested for the inhibition towards IMP(Inosine 5'-monophosphate) substrate of Inosine-5'-monophosphate dehydrogenase 2
[3] = target: T2, Inosine-5'-monophosphate dehydrogenase 2; experiment: The compound was tested for the inhibition towards […] (Nicotinamide adenine dinucleotide) substrate of Inosine-5'-monophosphate dehydrogenase 2
[4] = target: T1, Inosine-5'-monophosphate dehydrogenase 1; experiment: The compound was tested for the inhibition towards […] (Nicotinamide adenine dinucleotide) substrate of Inosine-5'-monophosphate dehydrogenase 1

T1 sequence (P20839 whole entry): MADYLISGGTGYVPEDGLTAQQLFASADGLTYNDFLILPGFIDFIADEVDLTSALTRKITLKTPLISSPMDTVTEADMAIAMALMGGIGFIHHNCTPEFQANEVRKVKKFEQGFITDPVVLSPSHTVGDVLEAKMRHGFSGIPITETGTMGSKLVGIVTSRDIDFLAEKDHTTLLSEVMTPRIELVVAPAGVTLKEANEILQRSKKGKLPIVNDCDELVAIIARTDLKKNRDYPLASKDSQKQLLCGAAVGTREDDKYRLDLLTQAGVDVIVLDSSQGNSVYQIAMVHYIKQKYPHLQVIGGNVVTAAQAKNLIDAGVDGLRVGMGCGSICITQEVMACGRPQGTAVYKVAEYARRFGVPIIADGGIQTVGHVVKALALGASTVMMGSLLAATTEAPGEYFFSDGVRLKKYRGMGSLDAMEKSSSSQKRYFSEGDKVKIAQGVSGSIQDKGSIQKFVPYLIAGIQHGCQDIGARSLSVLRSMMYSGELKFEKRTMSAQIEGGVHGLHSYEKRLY

Ki [1]	Ki [2]	Ki [3]	Ki [4]	Structure (SMILES)
38000 nM	57900 nM	99100 nM	135000 nM	NC(=O)c1coc([C@@H]2O[C@H](COP(=O)(O)OP(=O)(O)OC[C@H]3O[C@@H](n4cnc5c(N)ncnc54)[C@H](O)[C@@H]3O)[C@@H](O)[C@H]2O)c1
370 nM	320 nM	340 nM	340 nM	NC(=O)c1csc([C@@H]2O[C@H](COP(=O)(O)OP(=O)(O)OC[C@H]3O[C@@H](n4cnc5c(N)ncnc54)[C@H](O)[C@@H]3O)[C@@H](O)[C@H]2O)c1
33 nM	21 nM	26 nM	62 nM	NC(=O)c1c[se]c([C@@H]2O[C@H](COP(=O)(O)OP(=O)(O)OC[C@H]3O[C@@H](n4cnc5c(N)ncnc54)[C@H](O)[C@@H]3O)[C@@H](O)[C@H]2O)n1

Structure (SMILES)	Ki [1]	Ki [2]	Ki [3]	Ki [4]
NC(=O)c1c[se]c([C@@H]2O[C@H](COP(=O)(O)OP(=O)(O)OC[C@H]3O[C@@H](n4cnc5c(N)ncnc54)[C@H](O)[C@@H]3O)[C@@H](O)[C@H]2O)c1	580 nM	1100 nM	270 nM	260 nM
